Measurements reported in patent publication US20240166658A1, “PORPHYRIN DERIVATIVES AND USES THEREOF” (University of Tasmania, priority 2021, published 2024).

How the values were obtained:
[1] = PFCA guest response screening (RGB analysis, UV-Vis)
Method: A Puluz® 20 cm portable light tent with moderate and dispersed white LED lighting was used to photograph samples using an iPhone 6S plus camera on a fixed tripod. The automatic flash settings were disabled so there was no reflective interference on the sample vials. Samples that were being directly compared were photographed together to ensure lighting conditions and settings were consistent. The photographs were analysed using ImageJ software according to the procedure of Gallagher, 2014b. Multiple RGB values were chosen from areas of each sample at random to provide an “average” RGB value (Menesatti et al., 2012; Gallagher, 2014a; Phuangsaijai et al., 2021). Those RGB values were used to produce an artificial colour tile for visual comparison, or parameterized for modelling.
To quantify a colour difference, RGB values were transformed within the CIELab colour space. The difference, expressed as ΔE, was determined by measuring the relative distance between two colours. The numeric ΔE value can be used to predict how the two colours are perceived by a standard observer; a ΔE>2 is considered the minimum value to achieve a “just noticeable difference” (JND) (Table 1), which is the smallest difference required for an untrained observer to be able to determine two colours as being different (Castillo et al., 2021).
Experiments were performed at concentrations that could be monitored by the naked eye for practical sensing of PFAS in the field. Complexes of hosts (9), (11) and (12) were formed with the nine different perfluorocarboxylic acids (PFCAs) shown in Table 2 above and the colours of each host−PFCA complex were photographed in a lightbox and analysed using ImageJ software RGB analysis. Pixels of the solution were chosen at random to provide an RGB value. Multiple RGB values were recorded for each host−PFCA solution, and an average colour can be produced. From those values an RGB parameter was used to give a response value for modelling (Tahir et al., 2016).
After preliminary screenings, UV-Vis spectra were collected before and after the addition of 1 molar equivalent of each PFCA for each host, and the degree of complexation was noted by shifts in the Soret bands and formation of a peak at ca. 650 nm. To eliminate dilution effects, PFCA guest solutions were prepared in the equivalent concentration of host. If there was a notable host−guest interaction for a particular PFCA, the host−guest binding was investigated with more rigorous UV-Vis experiments, binding studies, and further colour analyses. Throughout these investigations, PFOA was considered the “average” PFCA both because of its position in the range of PFCA sizes and because its prevalence is often an indication of broader PFAS contamination. In any experiment where binding was further investigated for a particular PFCA, it was typically replicated with PFOA for comparison.

[2] = Anion selectivity screening with TBA salts, UV-Vis; assay type: binding; conditions: dichloromethane
Method: The selectivity of the host (9) for anions was investigated visually and spectroscopically. The TBA salts of anions commonly found in significant concentrations in water samples were added in 10 molar equivalents to solutions of host to give preliminary indications of host−guest interactions prior to more extensive investigation. Although not an accurate proxy of real-world matrix concentrations, it was thought that the binding of any anions would indicate any affinity for other anions.

[3] = UV-Vis host-guest titration, association constant; assay type: binding
Method: Path length of the quartz cell was 1 cm. For UV-vis titrations, a stock solution of host was prepared (2.2×10^−3 M) in dichloromethane (DCM) and serially diluted to the required concentrations. Working solutions of tetrabutylammonium (TBA) anion salts or guest molecules were prepared in the same manner Host−guest titrations used solutions of guest prepared in the working concentration of host solution, according to the procedure of Thordarson, 2011.
UV-vis spectroscopic host−guest titrations were performed in accordance with the methodologies of Thordarson, 2011. Solutions of host in dichloromethane were prepared. Solutions of guest were then prepared in the host solution. Aliquots of guest in host solution were added to host solution and sequentially analysed until a known molar equivalent of guest was added. The amount of guest added per aliquot was ascertained by a preliminary screening experiment; strong association constants required smaller molar equivalents so more information could be collected. […] The inverse is true for weaker binding interactions. Molar equivalents between 0.1-5 typically provided adequate information for modelling. The data was then used to simulate binding isotherms using www.supramolecular.org (Hibbert and Thordarson, 2016). The data was fitted to 1:1, 1:2 and 2:1 equilibria making no assumptions about the cooperativity of the binding interactions and modelled using different algorithms. These experiments mainly used the Nelder-Mead (Simplex) method.
A host solution of host (9) in dichloromethane was monitored using UV-Vis analysis as 0.5-10 equivalents of each PFAS was added. […] The data was processed using Bindfit isotherm simulators using both Nelder-Mead and L-BFGS-B methods (Thordarson, 2011).
To highlight any potential binding preferences across the PFCAs from the host molecules, triplicates of host−guest addition titrations were performed using host (9) and the TBA salts of the nine different deprotonated PFCAs.
Host (12) was also modelled for secondary binding interactions in the presence of additional guest (Table 9).

[4] = host + one equivalent PFBA in dichloromethane
[5] = host + one equivalent PFDA in dichloromethane
[6] = host + one equivalent PFDoDA in dichloromethane
[7] = host + one equivalent PFHpA in dichloromethane
[8] = host + one equivalent PFHxA in dichloromethane
[9] = host + one equivalent PFNA in dichloromethane
[10] = host + one equivalent PFOA in dichloromethane
[11] = host + one equivalent PFPeA in dichloromethane
[12] = host + one equivalent PFUnDA in dichloromethane

Structure (SMILES)	Absorbance @ 650 nm [1, 4]	Absorbance @ 650 nm [1, 5]	Absorbance @ 650 nm [1, 6]	Absorbance @ 650 nm [1, 7]	Absorbance @ 650 nm [1, 8]	Absorbance @ 650 nm [1, 9]	Absorbance @ 650 nm [1, 10]	Absorbance @ 650 nm [1, 11]	Absorbance @ 650 nm [1, 12]	ΔEHost-PFCA ([1]; host vs host + PFBA)	ΔEHost-PFCA ([1]; host vs host + PFDA)	ΔEHost-PFCA ([1]; host vs host + PFDoDA)	ΔEHost-PFCA ([1]; host vs host + PFHpA)	ΔEHost-PFCA ([1]; host vs host + PFHxA)	ΔEHost-PFCA ([1]; host vs host + PFNA)	ΔEHost-PFCA ([1]; host vs host + PFOA)	ΔEHost-PFCA ([1]; host vs host + PFPeA)	ΔEHost-PFCA ([1]; host vs host + PFUnDA)	further results
O=C(Nc1ccccc1-c1c2nc(c(-c3ccccc3NC(=O)C(F)(F)C(F)(F)C(F)(F)C(F)(F)C(F)(F)C(F)(F)C(F)(F)F)c3ccc([nH]3)c(-c3ccccc3NC(=O)C(F)(F)C(F)(F)C(F)(F)C(F)(F)C(F)(F)C(F)(F)C(F)(F)F)c3nc(c(-c4ccccc4NC(=O)C(F)(F)C(F)(F)C(F)(F)C(F)(F)C(F)(F)C(F)(F)C(F)(F)F)c4ccc1[nH]4)C=C3)C=C2)C(F)(F)C(F)(F)C(F)(F)C(F)(F)C(F)(F)C(F)(F)C(F)(F)F [host (9), α,α,α,α-5,10,15,20-tetrakis(2-(pentadecafluorooctanoylamino)phenyl)porphyrin]	0.04939	0.03023	0.01719	0.04879	0.04964	0.02986	0.02885	0.04302	0.02958	46.1	39.6	22.4	47.2	47.3	38.5	39.3	46.2	38.5	shift in the Q band ([2]; 10 molar equivalents of TBA salt): ~32 nm; UV-Vis change after addition of anion ([2]; 10 molar equivalents of TBA salts): no significant change; K value (averaged association constant Ka) ([3]; host (9) in dichloromethane, triplicate, TBA salt and acid, Bindfit): 1010
O=C(Nc1ccccc1-c1c2nc(c(-c3ccccc3NC(=O)C(F)(F)C(F)(F)C(F)(F)C(F)(F)C(F)(F)C(F)(F)C(F)(F)C(F)(F)C(F)(F)C(F)(F)C(F)(F)F)c3ccc([nH]3)c(-c3ccccc3NC(=O)C(F)(F)C(F)(F)C(F)(F)C(F)(F)C(F)(F)C(F)(F)C(F)(F)C(F)(F)C(F)(F)C(F)(F)C(F)(F)F)c3nc(c(-c4ccccc4NC(=O)C(F)(F)C(F)(F)C(F)(F)C(F)(F)C(F)(F)C(F)(F)C(F)(F)C(F)(F)C(F)(F)C(F)(F)C(F)(F)F)c4ccc1[nH]4)C=C3)C=C2)C(F)(F)C(F)(F)C(F)(F)C(F)(F)C(F)(F)C(F)(F)C(F)(F)C(F)(F)C(F)(F)C(F)(F)C(F)(F)F [host (12), α,α,α,α-5,10,15,20-tetrakis(2-(tricosafluorododecanoylamino)phenyl) porphyrin]	0.0906	0.0918	0.0769	0.0737	0.0728	0.0953	0.0913	0.0692	0.0808	21.1	22.3	17.9	16.3	17.5	22.3	21.8	9.8	18.8	K ([3]; 1 Host:1 Guest binding mode): 3.76 × 10^4; K11 ([3]; 1 Host:2 Guest binding mode): 1.76 × 10^6; K12 ([3]; 1 Host:2 Guest binding mode): 7.92 × 10^4; K11 ([3]; 2 Host:1 Guest binding mode): 2.37 × 10^5; K21 ([3]; 2 Host:1 Guest binding mode): 6.69 × 10^4
